SMILES strings stand for the structures. In brackets after ≈: the same amount, converted by molar mass. Read-outs that look alike come from different tables or passages of the source.

The experiment deals with S. saprophyticus ATCC 15305. Kind of experiment: MIC, microdilution, with or without tomatidine. The conditions noted are these: for MIC: Staphylococcus saprophyticus. In general terms: In broth dilution the organism is exposed to a series of concentrations in liquid medium.

Regarding `NC[C@H]1O[C@H](O[C@H]2[C@H](O)[C@@H](O[C@H]3O[C@H](CO)[C@@H](O)[C@H](N)[C@H]3O)[C@H](N)C[C@@H]2N)[C@H](N)C[C@@H]1O` [Tobramycin, tobramycin], the “Fold (−TO/+TO)” value (S. saprophyticus ATCC 15305, 8 μg/ml of tomatidine) is given as 8 fold. The MIC runs as follows: (ATCC15305, read-out: MIC +TO) 0.016 µg/mL (≈ 0.0342 µM); (ATCC15305, read-out: MIC −TO) 0.12 µg/mL (≈ 0.257 µM).

By MIC is commonly meant the lowest concentration that inhibits growth of the organism.

Values taken from patent US9457033B2, “Steroid alkaloids and uses thereof as antimicrobial agents against electron transport-deficient microbes and as potentiators for antimicrobial agents against pathogenic bacteria” (priority 2011, dated 2016).
